Patent US9382254B2, “Compounds and pharmaceutical compositions thereof for the treatment of cystic fibrosis” (Galapagos NV, priority 2013, dated 2016)

Legend:
CFTR G551D mutant = biological target: T1, CFTR G551D mutant (Homo sapiens, UniProt P13569, G551D); test: YFP-halide influx assay for the CFTR-G551D mutation; type: cell-based; conditions: HEK293 cells, forskolin 10.67 μM
T1 construct: expressed in transfected cells; host or cells: HEK293 (reverse transfection with plasmid)
Excerpt: The YFP halide influx assay measures the functionality of the cystic fibrosis Transmembrane Conductance regulator (CFTR) channels. The assay is used to evaluate the capacity of compounds to increase the channel opening of existing mutant CFTR channels in the membrane. It makes use of the observation that the yellow fluorescent protein (YFP) variant YFP H148Q, I152L, […] has its fluorescence substantially quenched by halide ions like Cl^− and I^−. (Galietta, Haggie, & Verkman, 2001)
For this purpose, HEK293-cells are seeded in 96 well plates. During seeding, the cells are reverse-transfected with plasmid vectors that direct the expression of the CFTR G551D mutant and of the YFP reporter. Cells are incubated at 37° C., 5% CO2 for 24 hours so as to allow for sufficient expression of the CFTR protein.
(§1) The I^−-induced quenching of fluorescence is recorded immediately after injection of I^− for 7 seconds. The capacity of a compound to increase the channel opening is directly correlated with the decrease in fluorescence, and is expressed as (1-(fluorescence after 7 seconds (F)/fluorescence before injection (F0))) and an EC50 can be derived from a (1-F/F0) vs compound concentration plot.

CFTR ΔF508 mutant = biological target: T2, CFTR ΔF508 mutant (Homo sapiens, UniProt P13569, DEL508-508); test: YFP-halide influx assay for the CFTR-ΔF508 mutation (384 well, FDSS/μCell); type: cell-based; conditions: CFBE41o- cells, CFTR-ΔF508, 1×D-PBS, fluorescence after 36 seconds
T2 construct: expressed in transfected cells; host or cells: CFBE41o- (adenoviral transduction)
T2 sequence (P13569 with tags, fused parts or gaps DEL508-508): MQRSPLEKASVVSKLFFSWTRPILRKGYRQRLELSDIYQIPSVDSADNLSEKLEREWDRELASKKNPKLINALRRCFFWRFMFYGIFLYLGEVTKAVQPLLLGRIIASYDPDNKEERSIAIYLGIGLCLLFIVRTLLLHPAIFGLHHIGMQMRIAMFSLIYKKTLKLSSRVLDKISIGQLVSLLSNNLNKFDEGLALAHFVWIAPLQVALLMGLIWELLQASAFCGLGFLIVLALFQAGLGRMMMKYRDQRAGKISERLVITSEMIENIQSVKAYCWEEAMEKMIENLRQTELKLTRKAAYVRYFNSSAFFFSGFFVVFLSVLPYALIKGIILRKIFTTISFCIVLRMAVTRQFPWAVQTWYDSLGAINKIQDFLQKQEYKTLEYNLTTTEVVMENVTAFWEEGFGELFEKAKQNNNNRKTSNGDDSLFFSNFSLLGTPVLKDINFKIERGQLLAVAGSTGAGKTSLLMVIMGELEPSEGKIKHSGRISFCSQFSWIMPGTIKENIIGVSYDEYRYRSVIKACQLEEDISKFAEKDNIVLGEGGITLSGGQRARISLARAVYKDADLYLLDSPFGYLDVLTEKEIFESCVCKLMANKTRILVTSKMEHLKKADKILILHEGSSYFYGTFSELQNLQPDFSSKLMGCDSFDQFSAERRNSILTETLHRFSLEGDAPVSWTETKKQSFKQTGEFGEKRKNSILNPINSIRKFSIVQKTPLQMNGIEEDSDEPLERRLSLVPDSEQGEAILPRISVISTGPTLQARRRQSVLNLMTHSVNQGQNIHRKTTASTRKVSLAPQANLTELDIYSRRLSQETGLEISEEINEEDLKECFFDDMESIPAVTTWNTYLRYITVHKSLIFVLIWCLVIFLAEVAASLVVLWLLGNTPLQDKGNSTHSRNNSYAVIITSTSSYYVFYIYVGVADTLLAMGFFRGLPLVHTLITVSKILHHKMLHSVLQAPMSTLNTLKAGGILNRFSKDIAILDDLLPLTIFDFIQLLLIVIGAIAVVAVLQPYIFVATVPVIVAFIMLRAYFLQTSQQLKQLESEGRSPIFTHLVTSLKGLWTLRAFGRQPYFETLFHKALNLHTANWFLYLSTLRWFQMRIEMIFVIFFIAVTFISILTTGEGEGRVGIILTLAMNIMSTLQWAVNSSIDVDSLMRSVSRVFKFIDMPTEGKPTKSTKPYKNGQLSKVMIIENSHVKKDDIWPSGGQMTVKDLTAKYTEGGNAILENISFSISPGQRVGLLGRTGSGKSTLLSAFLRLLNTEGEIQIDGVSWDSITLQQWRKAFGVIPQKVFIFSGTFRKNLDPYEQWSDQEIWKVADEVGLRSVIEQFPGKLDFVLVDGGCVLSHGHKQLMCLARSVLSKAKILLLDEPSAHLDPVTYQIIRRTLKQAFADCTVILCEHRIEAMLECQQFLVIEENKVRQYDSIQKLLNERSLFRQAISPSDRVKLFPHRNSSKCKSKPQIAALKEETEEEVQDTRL
Excerpt: The YFP halide influx assay measures the functionality of the cystic fibrosis Transmembrane Conductance regulator (CFTR) channels in the cystic fibrosis bronchial epithelium cell line CFBE41o-. The assay is used to evaluate the capacity of compounds to increase the open probability of existing CFTR channels in the membrane. It makes use of the observation that the yellow fluorescent protein (YFP) variant YFP H148Q, I152L has its fluorescence substantially quenched by halide ions like Cl— and I—. (Galietta, Haggie, & Verkman, 2001) (Nagai, et al., 2002)
For this purpose, CFBE41o-cells are seeded in 384 well plates (3000 CFBE cells/well). One day after seeding, the CFBE cells are transduced with adenoviral vectors that direct the expression of the CFTR ΔF508 mutant and of the YFP reporter. Cells are incubated at 27° C., 5% CO2 for 24 hours so as to allow for the proper folding and migration to the membrane of the CFTR channel or treated with a CFTR modulator during 24 h at 37° C.
as §1, with “I— induced” for “I^−-induced”, “recorded […]” for “recorded”, “I—” for “I^−”, “2 min on an FDSS/μCell (Hamamatsu).” for “7 seconds.”, “36” for “7”

T1 sequence (P13569 whole entry G551D): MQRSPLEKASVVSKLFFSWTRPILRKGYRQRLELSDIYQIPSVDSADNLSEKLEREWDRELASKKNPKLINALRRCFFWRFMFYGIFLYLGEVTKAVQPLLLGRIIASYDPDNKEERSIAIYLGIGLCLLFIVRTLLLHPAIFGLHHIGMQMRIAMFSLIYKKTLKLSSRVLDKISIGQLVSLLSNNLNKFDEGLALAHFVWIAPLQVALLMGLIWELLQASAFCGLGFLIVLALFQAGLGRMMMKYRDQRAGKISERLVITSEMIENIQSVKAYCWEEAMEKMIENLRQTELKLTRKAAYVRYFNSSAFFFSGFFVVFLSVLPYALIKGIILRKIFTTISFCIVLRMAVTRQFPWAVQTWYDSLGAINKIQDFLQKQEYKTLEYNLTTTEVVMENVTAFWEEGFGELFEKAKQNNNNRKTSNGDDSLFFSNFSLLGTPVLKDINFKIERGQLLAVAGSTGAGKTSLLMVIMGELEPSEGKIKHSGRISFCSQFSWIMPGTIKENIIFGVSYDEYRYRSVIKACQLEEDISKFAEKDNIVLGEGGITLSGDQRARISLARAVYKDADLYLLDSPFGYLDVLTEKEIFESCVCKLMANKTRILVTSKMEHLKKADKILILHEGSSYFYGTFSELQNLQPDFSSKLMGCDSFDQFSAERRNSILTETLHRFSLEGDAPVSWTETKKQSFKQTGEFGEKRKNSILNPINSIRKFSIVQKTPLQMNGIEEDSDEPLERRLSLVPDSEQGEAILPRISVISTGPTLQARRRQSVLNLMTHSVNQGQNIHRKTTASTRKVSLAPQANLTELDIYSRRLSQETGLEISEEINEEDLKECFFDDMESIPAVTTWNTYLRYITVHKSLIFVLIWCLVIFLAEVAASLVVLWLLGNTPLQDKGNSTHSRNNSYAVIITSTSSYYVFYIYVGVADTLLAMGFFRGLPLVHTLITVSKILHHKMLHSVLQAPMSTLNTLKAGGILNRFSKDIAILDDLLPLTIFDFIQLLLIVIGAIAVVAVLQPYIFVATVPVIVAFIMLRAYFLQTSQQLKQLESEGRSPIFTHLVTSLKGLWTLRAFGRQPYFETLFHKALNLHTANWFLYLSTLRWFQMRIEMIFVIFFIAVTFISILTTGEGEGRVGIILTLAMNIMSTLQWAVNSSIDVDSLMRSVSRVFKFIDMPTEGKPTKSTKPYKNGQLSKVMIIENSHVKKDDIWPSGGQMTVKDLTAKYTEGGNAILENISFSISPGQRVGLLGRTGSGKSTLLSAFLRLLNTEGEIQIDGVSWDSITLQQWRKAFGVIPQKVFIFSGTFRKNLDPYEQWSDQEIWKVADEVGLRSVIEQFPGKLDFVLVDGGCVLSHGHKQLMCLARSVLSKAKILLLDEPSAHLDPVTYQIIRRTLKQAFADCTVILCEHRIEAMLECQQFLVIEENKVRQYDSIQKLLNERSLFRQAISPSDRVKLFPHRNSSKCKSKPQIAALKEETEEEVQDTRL

Compound	EC50 (CFTR G551D mutant) [µM]	EC50 (CFTR ΔF508 mutant) [µM]	EC50 (CFTR G551D mutant; class symbol) [µM]
Cc1ccc(S(=O)(=O)c2cc(C(N)=O)c(NC(=O)C(C)(C)O)s2)cc1 [Compound 316, 2-(2-Hydroxy-2-methyl-propionylamino)-5-(toluene-4-sulfonyl)-thiophene-3-carboxylic acid amide]	1.16	0.0311	–
CC(C)(O)C(=O)Nc1sc(S(=O)(=O)c2ncccc2Cl)cc1C(N)=O [Compound 317, 5-(3-Chloro-pyridine-2-sulfonyl)-2-(2-hydroxy-2-methyl-propionylamino)-thiophene-3-carboxylic acid amide]	3.33	0.241	–
NC(=O)c1cc(S(=O)(=O)c2ccccc2OC(F)(F)F)sc1NC(=O)CO [Compound 319, 2-(2-Hydroxy-acetylamino)-5-(2-trifluoromethoxy-benzensulfonyl)-thiophene-3-carboxylic acid amide]	0.377	0.0082	–
CC(O)C(=O)Nc1sc(S(=O)(=O)c2ccccc2Cl)cc1C(N)=O (stereo not drawn) [Compound 321, 5-(2-Chloro-benzenesulfonyl)-2-(2-hydroxy-propionylamino)-thiophene-3-carboxylic acid amide]	1.93	0.0123	–
CC(C)Oc1ccc(S(=O)(=O)c2cc(C(N)=O)c(NC(=O)C(C)(C)O)s2)c(Cl)c1 [Compound 322, 5-(2-Chloro-4-isopropoxy-benzenesulfonyl)-2-(2-hydroxy-2-methyl-propionylamino)-thiophene-3-carboxylic acid amide]	0.919	0.0411	–
CC(C)Oc1ccc(S(=O)(=O)c2cc(C(N)=O)c(NC(=O)C(C)(C)O)s2)c(C(F)(F)F)c1 [Compound 324, 2-(2-Hydroxy-2-methyl-propionylamino)-5-(4-isopropoxy-2-trifluoromethyl-benzenesulfonyl)-thiophene-3-carboxylic acid amide]	3.16	0.0842	–
Cc1ncccc1S(=O)(=O)c1cc(C(N)=O)c(NC(=O)C(C)O)s1 (stereo not drawn) [Compound 326, 2-(2-hydroxypropanoylamino)-5-[(2-methyl-3-pyridyl)sulfonyl] thiophene-3-carboxamide]	–	1.06	> 1
C[C@@H](O)C(=O)Nc1sc(S(=O)(=O)c2ccc(F)cc2)cc1C(N)=O [Compound 327, 5-(4-fluorophenyl) sulfonyl-2-[[(2R)-2-hydroxypropanoyl]amino] thiophene-3-carboxamide]	3.33	0.135	–
CC(C)(O)C(=O)Nc1sc(S(=O)(=O)c2cccc3c2OC(F)(F)O3)cc1C(N)=O [Compound 330, 5-[(2,2-difluoro-1,3-benzodioxol-4-yl)sulfonyl]-2-[(2-hydroxy-2-methyl-propanoyl)amino] thiophene-3-carboxamide]	0.0622	0.0053	–
CC(O)C(=O)Nc1sc(S(=O)(=O)c2cc(F)ccc2C(F)(F)F)cc1C(N)=O (stereo not drawn) [Compound 335, 5-[5-fluoro-2-(trifluoromethyl)phenyl] sulfonyl-2-(2-hydroxypropanoylamino) thiophene-3-carboxamide]	0.107	0.0057	–
CC(C)(O)C(=O)Nc1sc(S(=O)(=O)c2cc(F)c(F)cc2Cl)cc1C(N)=O [Compound 336, 5-(2-Chloro-4,5-difluoro-benzenesulfonyl)-2-(2-hydroxy-2-methyl-propionylamino)-thiophene-3-carboxylic acid amide]	0.872	0.0122	–
CC(C)(O)C(=O)Nc1sc(S(=O)(=O)c2cc(F)ccc2CC(F)(F)F)cc1C(N)=O [Compound 338, 5-[5-fluoro-2-(2,2,2-trifluoroethyl)phenyl]sulfonyl-2-[(2-hydroxy-2-methyl-propanoyl)amino] thiophene-3-carboxamide]	0.859	0.0054	–
NC(=O)c1cc(S(=O)(=O)c2cc(F)ccc2Cl)sc1NC(=O)CO [Compound 339, 5-(2-Chloro-5-fluoro-benzensulfonyl)-2-(2-hydroxy-acetylamino)-thiophene-3-carboxylic acid amide]	1.75	0.0081	–
NC(=O)c1cc(S(=O)(=O)c2cc(F)ccc2CC(F)(F)F)sc1NC(=O)CO [Compound 340, 5-[5-Fluoro-2-(2,2,2-trifluoro-ethyl)-benzenesulfonyl]-2-(2-hdyroxy-acetylamino)-thiophene-3-carboxylic acid amide]	0.478	0.008	–
CC(C)C(O)C(=O)Nc1sc(S(=O)(=O)c2ccc(F)cc2)cc1C(N)=O (stereo not drawn) [Compound 341, 5-(4-fluorophenyl)sulfonyl-2-[(2-hydroxy-3-methyl-butanoyl)amino] thiophene-3-carboxamide]	1.51	0.0202	–
CC(C)CC(O)C(=O)Nc1sc(S(=O)(=O)c2ccc(F)cc2)cc1C(N)=O (stereo not drawn) [Compound 343, 5-(4-fluorophenyl)sulfonyl-2-[(2-hydroxy-4-methyl-pentanoyl)amino] thiophene-3-carboxamide]	1.42	0.0924	–

Results, then the compound that gave them:

EC50 (CFTR G551D mutant) [µM]	EC50 (CFTR ΔF508 mutant) [µM]	EC50 (CFTR G551D mutant; class symbol) [µM]	Compound
0.716	0.0202	–	CC(O)C(=O)Nc1sc(S(=O)(=O)c2ccc(OC(F)(F)F)cc2)cc1C(N)=O (stereo not drawn) [Compound 318, 2-(2-Hydroxy-propionylamino)-5-(4-trifluoromethoxy-benzenesulfonyl)-thiophene-3-carboxylic acid amide]
0.427	0.0258	–	CC(O)C(=O)Nc1sc(S(=O)(=O)c2ccc(OC(F)(F)F)cc2Cl)cc1C(N)=O (stereo not drawn) [Compound 328, 5-[2-chloro-4-(trifluoromethoxy)phenyl] sulfonyl-2-(2-hydroxypropanoylamino) thiophene-3-carboxamide]
0.525	0.0228	–	C[C@@H](O)C(=O)Nc1sc(S(=O)(=O)c2ccc(OC(F)(F)F)cc2)cc1C(N)=O [Compound 332, 2-[[(2R)-2-hydroxypropanoyl]amino]-5-[4-(trifluoromethoxy)phenyl] sulfonyl-thiophene-3-carboxamide]
0.771	0.105	–	CC(C)(C)C(O)C(=O)Nc1sc(S(=O)(=O)c2ccc(F)cc2)cc1C(N)=O (stereo not drawn) [Compound 342, 5-(4-fluorophenyl)sulfonyl-2-[(2-hydroxy-3,3-dimethyl-butanoyl)amino] thiophene-3-carboxamide]
0.237	0.036	–	CC(C)(O)C(=O)Nc1sc(S(=O)(=O)c2ccc(C(F)(F)F)cc2)cc1C(N)=O [Compound 344, 2-[(2-hydroxy-2-methyl-propanoyl)amino]-5-[4-(trifluoromethyl)phenyl] sulfonyl-thiophene-3-carboxamide]
0.528	0.111	–	CC(C)C(O)C(=O)Nc1sc(S(=O)(=O)c2ccc(OC(F)(F)F)cc2)cc1C(N)=O (stereo not drawn) [Compound 345, 2-[(2-hydroxy-3-methyl-butanoyl)amino]-5-[4-(trifluoromethoxy)phenyl] sulfonyl-thiophene-3-carboxamide]
0.682	0.47	–	CC(C)CC(O)C(=O)Nc1sc(S(=O)(=O)c2ccc(OC(F)(F)F)cc2)cc1C(N)=O (stereo not drawn) [Compound 346, 2-[(2-hydroxy-4-methyl-pentanoyl)amino]-5-[4-(trifluoromethoxy)phenyl] sulfonyl-thiophene-3-carboxamide]
0.931	0.343	–	CC(C)(C)C(O)C(=O)Nc1sc(S(=O)(=O)c2ccc(OC(F)(F)F)cc2)cc1C(N)=O (stereo not drawn) [Compound 349, 2-[(2-hydroxy-3,3-dimethyl-butanoyl)amino]-5-[4-(trifluoromethoxy)phenyl] sulfonyl-thiophene-3-carboxamide]
